The values that follow come from patent publication US20160354300A1, “Low Viscosity Hair Care Composition” (The Procter & Gamble Company, priority 2015, published 2016).

Data set [1] is described as follows: Kinematic viscosity at 40 C of surfactant base formulation with added agent (Cannon viscometer). In kind it is physicochemical. The note with it: for Lowest viscosity achieved (cSt): Table 1, base formulation 24% sodium undecyl sulfate, 6% lauramidopropyl betaine, 1.6% perfume, agent at 2%, 4%, 6%, 8%, 40° C.; for Kinematic viscosity at 40 C. [cSt], 2% oil: agent added at 2% to base formulation; for Kinematic viscosity at 40 C. [cSt], 4% oil: agent added at 4% to base formulation; for Kinematic viscosity at 40 C. [cSt], 6% oil: agent added at 6% to base formulation; for Kinematic viscosity at 40 C. [cSt], 8% oil: agent added at 8% to base formulation. From the text: Referring to Tables 1 and 2, the base formulations were made by mixing 1.6% perfume, 24% sodium undecyl sulfate (CAS#1072-24-8) active, 6% lauramidopropyl betaine (CAS#4292-10-8) active and 60.4% deionized water which leaves 8% unfilled for the addition of a viscosity reducing agent (the balance being filled in by distilled water). For all compositions, the surfactant, water and additives including viscosity reducing agents were expected to be in a single phase.
The agents from Tables 1 and 2 were added to the base formulation at a percentage of 2%, 4%, 6%, and 8% into the above surfactant solution. The subsequent formulations were vortexed and put into oven at 60° C. overnight to form homogeneous solution. The viscosities of the formulations were measured with calibrated viscometers (Size 200/350/450) from Cannon Instrument Company (2139 High Tech Road, State College, Pa., USA, 16803).
After the equilibration, the formulations were drawn to reach the starting mark with a rubber suction bulb and the flow time between the starting mark and end mark was recorded for calculation. Each formulation was measured three times to calculate average and standard deviation. Between samples, viscometer was cleaned with water and acetone to rinse off residual.
Viscosity values were calculated based on the equation:
Viscosity (mm^2/s·(cSt))=Time (s)*Constant (mm^2/s^2·(cSt/s))
The time in the above equation is the flow time recorded in the experiment and the constant numbers for each calibrated viscometer were obtained from the manuals. […]
The viscosities of the formulations are measured with calibrated viscometers (Size 200/350/450) from Cannon Instrument Company (2139 High Tech Road, State College, Pa., USA, 16803). Prior to the measurement, the formulations are equilibrated in the viscometer reservoir for 30 min at 40° C. in water bath to ensure a homogeneous temperature is reached in the system. […]

Data set [2] is described as follows: Visual cloudiness of surfactant formulation with added agent after 20:1 dilution with water. In kind it is physicochemical. Set-up: key: Samples that appeared cloudy (turbid) within less than a day were noted as cloudy (“Yes”); Samples that did not appear cloudy (turbid) within less than a day were noted as not cloudy (“No”). The note with it: 0.5 g formula, 10 ml deionized water; for Cloudy at 1:20 dilution at 2%, 4%, and/or 6%: Table 3, visual, within less than a day; for Added at 2%: cloudy at 20:1 dilution: agent at 2%; for Added at 4%: cloudy at 20:1 dilution: agent at 4%; for Added at 6%: cloudy at 20:1 dilution: agent at 6%; for Added at 8%: cloudy at 20:1 dilution: agent at 8%. Here is the method:
Now referring to Tables 3 and 4, the following surfactant formulations were made by mixing 1.6% perfume, 24% sodium undecyl sulfate (CAS#1072-24-8) active, 6% lauramidopropyl betaine (CAS#4292-10-8) active, and 60.4% deionized water which leaves 8% unfilled for the addition of the listed agents (the balance being filled in by distilled water). The agents were added at a percentage of 2%, 4%, 6%, and 8% into the above surfactant formulation. The resulting formulations were vortexed and put into oven at 60° C. overnight to form homogeneous solution. For all formulations, the surfactant, water and additives, including the added agents, were expected to be in a single phase.
The resulting formulations were weighed out in a scintillation vial combined with 10 ml of water to achieve a representative dilution during use: 0.5 g formula, 10 ml deionized water for 20:1 dilution. After the combination of the ingredients, the vial was vigorously shaken by hand and the samples were visually inspected by looking at the solution against a dark background. Samples that appeared cloudy (turbid) within less than a day were noted as cloudy (“Yes”). […] Samples that appeared cloudy at the 20:1 dilution for any of the 2%, 4% or 6% concentration of oil may be most desirable by requiring a limited amount of the agent to be added, limiting cost and trade-offs associated with higher levels.
The appearance of a cloudy formulation at 1:20 dilution at 2%, 4%, and/or 6% can signal improved deposition of surfactant soluble active agents during consumer use.

Counter-ions that a name gives are not always drawn.

Regarding `CCCCOC(=O)c1ccccc1O` [Butyl Salicylate], in data set [1], the “Lowest viscosity achieved (cSt)” value is reported as 368 cSt and the “Kinematic viscosity at 40 C. [cSt], 2% oil” value (“Kinematic viscosity … 2% oil” for short) came out at 367.9 cSt. Moreover, in data set [2], the “Cloudy at 1:20 dilution at 2%, 4%, and/or 6%” value (“Cloudy … and/or 6%” for short) is recorded as “No” and the “Added at 2%: cloudy at 20:1 dilution” value is listed as “No”.

For `CC12CCC(CC1)C(C)(C)O2` [Eucalyptol], in data set [1], the “Lowest viscosity achieved (cSt)” value was 203 cSt; the “Kinematic viscosity … 2% oil” value worked out at 527.3 cSt; the “Kinematic viscosity at 40 C. [cSt], 4% oil” value (“Kinematic viscosity … 4% oil” for short) is recorded as 292.9 cSt; the “Kinematic viscosity at 40 C. [cSt], 6% oil” value (“Kinematic viscosity … 6% oil” for short) worked out at 203.1 cSt. In data set [2], the “Cloudy … and/or 6%” value is “No”; the “Added at 2%: cloudy at 20:1 dilution” value is “No”; the “Added at 4%: cloudy at 20:1 dilution” value is “No”; the “Added at 6%: cloudy at 20:1 dilution” value is recorded as “No”.

As to `CC(C)COC(=O)c1ccccc1O` [Iso Butyl Salicylate], in data set [1], the “Lowest viscosity achieved (cSt)” value was 409 cSt and the “Kinematic viscosity … 2% oil” value was determined as 408.7 cSt. In addition, in data set [2], the “Cloudy … and/or 6%” value is recorded as “No”; the “Added at 2%: cloudy at 20:1 dilution” value is reported as “No”; the “Added at 4%: cloudy at 20:1 dilution” value is “No”.

With `CCC(CC(C)CC)=NO` (centres unmarked) [5-Methyl-3-Heptanone Oxime], in data set [1], the “Lowest viscosity achieved (cSt)” value amounted to 246 cSt and the “Kinematic viscosity … 2% oil” value amounted to 246.3 cSt.

`CCCCCCCCCCCCCCCC` [Hexadecane]: in data set [1], the “Lowest viscosity achieved (cSt)” value came out at 18 cSt; the “Kinematic viscosity … 2% oil” value was 21.1 cSt; the “Kinematic viscosity … 4% oil” value came to 18.1 cSt. In addition, in data set [2], the “Cloudy … and/or 6%” value was “No”; the “Added at 2%: cloudy at 20:1 dilution” value was “No”; the “Added at 4%: cloudy at 20:1 dilution” value is “No”.

As to `CC1=CCC(C(C)C)=CC1` [gamma-Terpinene], in data set [1], the “Lowest viscosity achieved (cSt)” value came out at 32 cSt; the “Kinematic viscosity … 2% oil” value turned out to be 238.0 cSt; the “Kinematic viscosity … 4% oil” value amounted to 65.0 cSt; the “Kinematic viscosity … 6% oil” value was found to be 31.7 cSt. Also, in data set [2], the “Cloudy … and/or 6%” value was “Yes”; the “Added at 2%: cloudy at 20:1 dilution” value is recorded as “No”; the “Added at 4%: cloudy at 20:1 dilution” value is “No”; the “Added at 6%: cloudy at 20:1 dilution” value is on record as “Yes”. In data set [2], the “Added at 8%: cloudy at 20:1 dilution” value is listed as “Yes”.

In the case of `C=CC(C)(CCC=C(C)C)OC(=O)C(C)C` (centres unmarked) [Linalyl Iso Butyrate], in data set [1], the “Lowest viscosity achieved (cSt)” value is reported as 38 cSt; the “Kinematic viscosity … 2% oil” value is recorded as 223.4 cSt; the “Kinematic viscosity … 4% oil” value is on record as 73.0 cSt; the “Kinematic viscosity … 6% oil” value is reported as 37.7 cSt. Moreover, in data set [1], the “Kinematic viscosity at 40 C. [cSt], 8% oil” value (“Kinematic viscosity … 8% oil” for short) came to 39.9 cSt. Besides, in data set [2], the “Cloudy … and/or 6%” value was “Yes”; the “Added at 2%: cloudy at 20:1 dilution” value is reported as “No”; the “Added at 4%: cloudy at 20:1 dilution” value is given as “No”; the “Added at 6%: cloudy at 20:1 dilution” value was “Yes”. For the same compound, the “Added at 8%: cloudy at 20:1 dilution” value in data set [2] is “Yes”.

Consider `CCCCCC1(C)CCC(C)(C)C1=O` (centres unmarked) [Veloutone], for which, in data set [1], the “Lowest viscosity achieved (cSt)” value is 47 cSt; the “Kinematic viscosity … 2% oil” value was 260.2 cSt; the “Kinematic viscosity … 4% oil” value amounted to 129.1 cSt; the “Kinematic viscosity … 6% oil” value stood at 56.3 cSt. Moreover, in data set [1], the “Kinematic viscosity … 8% oil” value is 47.3 cSt. In data set [2], the “Cloudy … and/or 6%” value is “Yes”; the “Added at 2%: cloudy at 20:1 dilution” value is recorded as “No”; the “Added at 4%: cloudy at 20:1 dilution” value was “No”; the “Added at 6%: cloudy at 20:1 dilution” value is on record as “Yes”. Moreover, in data set [2], the “Added at 8%: cloudy at 20:1 dilution” value was “Yes”.

With `CCCCCC(=O)OCC(C)C` [Isobutyl Hexanoate], in data set [1], the “Lowest viscosity achieved (cSt)” value was found to be 109 cSt; the “Kinematic viscosity … 2% oil” value is reported as 390.0 cSt; the “Kinematic viscosity … 4% oil” value is reported as 177.9 cSt; the “Kinematic viscosity … 6% oil” value is 140.9 cSt. The “Kinematic viscosity … 8% oil” value in data set [1] stood at 109.4 cSt. In data set [2], the “Cloudy … and/or 6%” value is given as “No”; the “Added at 2%: cloudy at 20:1 dilution” value is given as “No”; the “Added at 4%: cloudy at 20:1 dilution” value was “No”; the “Added at 6%: cloudy at 20:1 dilution” value is given as “No”. For the same compound, the “Added at 8%: cloudy at 20:1 dilution” value in data set [2] was “Yes”.

Consider `CCCCCCCC(OC)OC` [1,1-Dimethoxyoctane], for which, in data set [1], the “Lowest viscosity achieved (cSt)” value is on record as 308 cSt; the “Kinematic viscosity … 2% oil” value is recorded as 500.7 cSt; the “Kinematic viscosity … 4% oil” value turned out to be 308.1 cSt.

For the compound `C=C(C)[C@H]1CC=C(C)CC1` [Dipentene], in data set [1], the “Lowest viscosity achieved (cSt)” value amounted to 35 cSt; the “Kinematic viscosity … 2% oil” value turned out to be 307.6 cSt; the “Kinematic viscosity … 4% oil” value is given as 74.5 cSt; the “Kinematic viscosity … 6% oil” value was determined as 35.1 cSt. Also, the “Kinematic viscosity … 8% oil” value in data set [1] is on record as 42.6 cSt. Besides, in data set [2], the “Cloudy … and/or 6%” value is on record as “Yes”; the “Added at 2%: cloudy at 20:1 dilution” value is given as “No”; the “Added at 4%: cloudy at 20:1 dilution” value is “No”; the “Added at 6%: cloudy at 20:1 dilution” value was “Yes”. In data set [2], the “Added at 8%: cloudy at 20:1 dilution” value is listed as “Yes”.

Consider `C=C(C)[C@H]1CC=C(C)CC1` [Limonene], for which, in data set [1], the “Lowest viscosity achieved (cSt)” value came to 86 cSt; the “Kinematic viscosity … 2% oil” value came out at 366.5 cSt; the “Kinematic viscosity … 4% oil” value was determined as 166.8 cSt; the “Kinematic viscosity … 6% oil” value was 97.5 cSt. Besides, in data set [1], the “Kinematic viscosity … 8% oil” value is given as 86.4 cSt.

In the case of `CC(CC=O)CCCC(C)(C)O` (centres unmarked) [Hydroxycitronellal], in data set [1], the “Lowest viscosity achieved (cSt)” value is recorded as 34 cSt; the “Kinematic viscosity … 2% oil” value came to 310.8 cSt; the “Kinematic viscosity … 4% oil” value came out at 145.4 cSt; the “Kinematic viscosity … 6% oil” value amounted to 65.9 cSt. In data set [1], the “Kinematic viscosity … 8% oil” value is listed as 34.1 cSt.

With `CC(=O)CCc1ccc(O)cc1` [Raspberry Ketone], in data set [1], the “Lowest viscosity achieved (cSt)” value amounted to 33 cSt; the “Kinematic viscosity … 2% oil” value is on record as 151.9 cSt; the “Kinematic viscosity … 4% oil” value was found to be 107.4 cSt; the “Kinematic viscosity … 6% oil” value amounted to 54.0 cSt. Further, in data set [1], the “Kinematic viscosity … 8% oil” value stood at 33.0 cSt.

`CCO` [Ethanol]: in data set [1], the “Lowest viscosity achieved (cSt)” value was found to be 29 cSt; the “Kinematic viscosity … 2% oil” value was found to be 205.6 cSt; the “Kinematic viscosity … 4% oil” value was determined as 111.0 cSt; the “Kinematic viscosity … 6% oil” value is recorded as 50.8 cSt. In addition, the “Kinematic viscosity … 8% oil” value in data set [1] is 29.2 cSt.

Regarding `CC12CCC(CC1=O)C2(C)C` (centres unmarked) [Camphor Gum], in data set [1], the “Lowest viscosity achieved (cSt)” value worked out at 127 cSt; the “Kinematic viscosity … 2% oil” value came out at 365.8 cSt; the “Kinematic viscosity … 4% oil” value amounted to 127.2 cSt.

With `COC(C)(C)C1CC=C(C)CC1` (centres unmarked) [Orange Flower Ether], in data set [1], the “Lowest viscosity achieved (cSt)” value amounted to 419 cSt; the “Kinematic viscosity … 2% oil” value came out at 552.2 cSt; the “Kinematic viscosity … 4% oil” value was 418.8 cSt.

Take `CCC(=O)O[C@@H]1C[C@H]2CC[C@]1(C)C2(C)C` (racemic) [Iso Bornyl Propionate]: in data set [1], the “Lowest viscosity achieved (cSt)” value amounted to 463 cSt and the “Kinematic viscosity … 2% oil” value is listed as 463.1 cSt.

Take `CCOC(=O)CC(O)(CC(=O)OCC)C(=O)OCC` [Triethyl Citrate]: in data set [1], the “Lowest viscosity achieved (cSt)” value stood at 41 cSt; the “Kinematic viscosity … 2% oil” value was found to be 269.4 cSt; the “Kinematic viscosity … 4% oil” value was 136.6 cSt; the “Kinematic viscosity … 6% oil” value came to 66.6 cSt. The “Kinematic viscosity … 8% oil” value in data set [1] worked out at 40.5 cSt.
